This passage reports IC50 results from patent US11306078B2, “Piperidine CXCR7 receptor modulators” (IDORSIA PHARMACEUTICALS LTD., priority 2016, dated 2022).

The target in the first assay is human chemokine receptor CXCR7 (Homo sapiens (Human), UniProt P25106). Put plainly: Tango CXCR7-bla U2OS beta-arrestin recruitment assay (beta-lactamase reporter, FRET), antagonism of CXCL12/SDF1-α.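 Also: compounds preincubated 15 min before CXCL12 addition, then 22 h at 37 °C, FRET emission ratio read with CCF4-AM substrate after 2 h.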 In kind it is cell-based. The following applies: antagonistic effect on CXCR7; Tango CXCR7-bla U2OS cells, CXCL12/SDF1-α at its EC80.
Sequence of human chemokine receptor CXCR7 (P25106 whole entry): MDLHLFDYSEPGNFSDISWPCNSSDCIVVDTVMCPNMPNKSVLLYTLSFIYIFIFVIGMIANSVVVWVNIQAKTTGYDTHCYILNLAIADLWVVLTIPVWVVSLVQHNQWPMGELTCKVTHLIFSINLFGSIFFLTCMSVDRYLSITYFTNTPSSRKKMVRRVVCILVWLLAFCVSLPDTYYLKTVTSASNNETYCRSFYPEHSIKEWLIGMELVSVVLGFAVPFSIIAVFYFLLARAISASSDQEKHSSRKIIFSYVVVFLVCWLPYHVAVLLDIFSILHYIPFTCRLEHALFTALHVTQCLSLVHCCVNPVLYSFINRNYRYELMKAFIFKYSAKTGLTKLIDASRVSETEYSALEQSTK
For `Cc1cccc(CNC(=O)[C@H]2CN(CC3CC3)CC[C@@H]2NC(=O)c2cc(-c3ccc(F)cc3F)on2)n1` [Example 4.064], the IC50 worked out at 753 nM.
Still for that read-out and setting: the figure for `CN(C)C(=O)[C@@H]1CN(C2CCCCC2)CC[C@H]1NC(=O)c1cc(-c2ccc(F)cc2F)no1` (racemic) [Example 1.102, rac-(3R*,4R*)-1-Cyclohexyl-4-{[3-(2,4-difluoro-phenyl)-isoxazole-5-carbonyl]-amino}-piperidine-3-carboxylic acid dimethylamide] is 111 nM; for `COc1ccccc1C(C)NC(=O)[C@H]1CN(CC2CC2)CC[C@@H]1NC(=O)c1cc(-c2ccc(F)cc2F)on1` (some centres unmarked) [Example 4.072] it is 16 nM; for `COc1cccc(C2(NC(=O)[C@H]3CN(CC4CC4)CC[C@@H]3NC(=O)c3cc(-c4ccc(F)cc4F)on3)CC2)c1` [Example 4.059] it is 61 nM.
As to `CC(C)(C)N1CC[C@@H](NC(=O)c2cc(-c3ccc(F)cc3F)on2)[C@H](C(=O)NC2(c3ncccn3)CC2)C1` [Example 4.101], half-maximal inhibition (IC50) required 71 nM.
`COc1ccccc1CCNC(=O)[C@@H]1CN(C2CCCCC2)CC[C@H]1NC(=O)c1cc(-c2ccc(F)cc2F)on1` (racemic) [Example 1.057, rac-(3R*,4R*)-1-Cyclohexyl-4-{[5-(2,4-difluoro-phenyl)-isoxazole-3-carbonyl]-amino}-piperidine-3-carboxylic acid [2-(2-methoxy-phenyl)-ethyl]-amide] returned an IC50 of 1 nM.
The same measure, in the same setting: the figure for `CN(CCc1ccccn1)C(=O)[C@@H]1CN(C2CCCC2)CC[C@H]1NC(=O)c1cc(-c2ccc(F)cc2F)on1` [Example 2.078] is 72 nM; for `C[C@@H]1CCC[C@H]1N1CC[C@@H](NC(=O)c2cc(-c3ccc(F)cc3F)on2)[C@H](C(=O)N(C)C)C1` [Example 2.023b] it is 26 nM.
Still for that read-out and setting: the figure for `Cc1ccc(CCNC(=O)[C@@H]2CN(C3CCCCC3)CC[C@H]2NC(=O)c2cc(-c3ccc(F)cc3F)on2)cc1` (racemic) [Example 1.062, rac-(3R*,4R*)-1-Cyclohexyl-4-{[5-(2,4-difluoro-phenyl)-isoxazole-3-carbonyl]-amino}-piperidine-3-carboxylic acid (2-p-tolyl-ethyl)-amide] is 16 nM; for `COCC(C)(C)NC(=O)[C@@H]1CN(CC2CC2)CC[C@H]1NC(=O)c1noc(-c2ccc(F)cc2F)n1` (racemic) [Example 1.153, rac-(3R*,4R*)-1-Cyclopropylmethyl-4-{[5-(2,4-difluoro-phenyl)-[1,2,4]oxadiazole-3-carbonyl]-amino}-piperidine-3-carboxylic acid (2-methoxy-1,1-dimethyl-ethyl)-amide] it is 803 nM.

The same assay, now with this note: antagonistic effect on CXCR7; Tango CXCR7-bla U2OS cells; CXCL12/SDF1-α at its EC80; geometric mean.
With `O=C(N[C@@H]1CCN(CC2CC2)C[C@H]1C(=O)NC1(c2ncccn2)CC1)c1cc(C2CC2)on1` (single isomer, unassigned) [Reference Compound 1b, (3R,4R)-4-[(5-Cyclopropyl-isoxazole-3-carbonyl)-amino]-1-cyclopropylmethyl-piperidine-3-carboxylic acid (1-pyrimidin-2-yl-cyclopropyl)-amide or (3S,4S)-4-[(5-cyclopropyl-isoxazole-3-carbonyl)-amino]-1-cyclopropylmethyl-piperidine-3-carboxylic Acid (1-pyrimidin-2-yl-cyclopropyl)-amide, reference compound], the half-maximal inhibitory concentration (IC50) was > 10000 nM.
